# Experimental data from patent publication US7408065B2, “P2X7 receptor antagonists and their use” (AstraZeneca AB, priority 2003, dated 2008).
# Counter-ions that a name gives are not always drawn.
row,melting point,Structure (SMILES)
1,120 °C (dec.),"O=C(CC1CCCCC1)Nc1c(Cl)ccc2nc(N3C[C@@H]4C[C@H]3CN4)ccc12 (as salt: acetate) [Example 13, N-[6-Chloro-2-[(1S,4S)-2,5-diazabicyclo[2.2.1]hept-2-yl]-5-quinolinyl]-cyclohexaneacetamide, Acetate]"
2,154 to 155 °C,"Cc1ccc2nc(N3CC[C@H](N)C3)ccc2c1C(=O)NCC1CCCCC1 (as salt: acetate) [Example 58, 2-[(3S)-3-Amino-1-pyrrolidinyl]-N-(cyclohexylmethyl)-6-methyl-5-quinolinecarboxamide, Acetate]"
3,185 to 190 °C,"O=C(O)CN1CCN(c2ccc3c(C(=O)NCC4CCCCC4)c(Cl)ccc3n2)CC1 (as salt: acetate) [Example 73, 4-[6-Chloro-5-[[(cyclohexylmethyl)amino]carbonyl]-2-quinolinyl]-1-piperazineacetic acid, Acetate]"
4,170 to 175 °C,O=C(CC1CCCCC1)Nc1c(Cl)ccc2nc(CC3CCNCC3)ccc12 (as salt: hydrochloride)
5,270 °C (dec.),CN1CCN(c2ccc3c(NC(=O)CC4CCCCC4)c(Cl)ccc3n2)CC1 (as salt: hydrochloride)
6,152 to 155 °C,CCNCCCc1ccc2c(NC(=O)CC3CCCCC3)c(Cl)ccc2n1 (as salt: hydrochloride)
7,> 250 °C,O=C(CC1CCCCC1)Nc1c(Cl)ccc2nc(N3CCNCC3)ccc12 (as salt: hydrochloride)
8,219 to 221 °C,CCCCNCCCc1ccc2c(NC(=O)CC3CCCCC3)c(Cl)ccc2n1 (as salt: hydrochloride)
9,215 to 218 °C,CNCCCN(C)c1ccc2c(NC(=O)C3(C4CCCCC4)CC3)c(Cl)ccc2n1 (as salt: hydrochloride)
10,210 to 213 °C,Cc1ccc2c(C(=O)NCC3CCCCC3)c(Cl)ccc2n1 (as salt: hydrochloride)
11,305 to 306 °C,O=C(NCC1CCCCC1)c1c(Cl)ccc2nc(N3CCNCC3)ccc12 (as salt: hydrochloride)
12,250 °C (dec.),CNCCCN(C)c1ccc2c(NC(=O)CC3CCC(C(F)(F)F)CC3)c(Cl)ccc2n1 (stereo not drawn) (as salt: hydrochloride)
13,231 to 233 °C,"CNCCCN(C)c1ccc2c(NC(=O)CC3CCCCC3)c(Cl)ccc2n1 (as salt: hydrochloride) [Example 3, N-[6-Chloro-2-[methyl[3-(methylamino)propyl]amino]-5-quinolinyl]-cyclohexaneacetamide, Dihydrochloride]"
14,193 to 198 °C,"O=C(CC1CCCCC1)Nc1c(Cl)ccc2nc(N[C@@H]3CCNC3)ccc12 (as salt: hydrochloride) [Example 14, N-[6-Chloro-2-[(3R)-3-pyrrlidinylamino]-5-quinolinyl]-cyclohexaneacetamide, Dihydrochloride]"
15,231 to 234 °C,"CCNCCCc1ccc2c(NC(=O)CC3CCCCC3)c(C)ccc2n1 (as salt: hydrochloride) [Example 15, N-[2-[3-(Ethylamino)propyl]-6-methyl-5-quinolinyl]-cyclohexaneacetamide, Dihydrochloride]"
16,238 to 240 °C,"O=C(CC1CCCCC1)Nc1c(Cl)ccc2nc(NCCNCCO)ccc12 (as salt: hydrochloride) [Example 17, N-[6-Chloro-2-[[2-[(2-hydroxyethyl)amino]ethyl]amino]-5-quinolinyl]-cyclohexaneacetamide, Dihydrochloride]"
17,211 to 220 °C,"O=C(NCC1CCCCC1)c1c(Cl)ccc2nc(N3CC[C@H](NCCO)C3)ccc12 (as salt: hydrochloride) [Example 50, 6-Chloro-N-(cyclohexylmethyl)-2-[(3S)-3-[(2-hydroxyethyl)amino]-1-pyrrolidinyl]-5-quinolinecarboxamide, Hydrochloride]"
18,320 to 326 °C,O=C(O)CN1CCN(c2ccc3c(NC(=O)CC4CCCCC4)c(Cl)ccc3n2)CC1 (as salt: salt)
19,320 to 324 °C,"O=C(NCC1CCCCC1)c1c(Cl)ccc2nc(N3CCC(C(=O)O)CC3)ccc12 (as salt: sodium) [Example 74, 1-[6-Chloro-5-[[(cyclohexylmethyl)amino]carbonyl]-2-quinolinyl]-4-piperidinecarboxylic Acid, Sodium Salt]"
20,140 to 145 °C,O=C(CC1CCCCC1)Nc1c(Cl)ccc2nc(CCCc3nnn[nH]3)ccc12 (as salt: trifluoroacetate)
21,168 to 170 °C,O=C(NCC1CCCCC1)c1c(Cl)ccc2nc(N3CCC[C@H]3C(=O)O)ccc12 (as salt: trifluoroacetate)
22,79 to 83 °C,O=C(O)CC1CCN(c2ccc3c(C(=O)NCC4CCCCC4)c(Cl)ccc3n2)CC1 (as salt: trifluoroacetate)
23,170 to 173 °C,"O=C(CC1CCCCC1)Nc1c(Cl)ccc2nc(N3CCC[C@@H]3C(=O)O)ccc12 (as salt: trifluoroacetate) [Example 65, 1-[6-Chloro-5-[(cyclohexylacetyl)amino]-2-quinolinyl]-D-proline, Trifluoroacetate]"

row,melting point,Structure (SMILES)
1,155 to 159 °C,"O=C(CC1CCCCC1)Nc1c(Cl)ccc2nc(NC[C@@H](O)CO)ccc12 [Example 6, N-[6-Chloro-2-[[(2R)-2,3-dihydroxypropyl]amino]-5-quinolinyl]-cyclohexaneacetamide]"
2,248 to 250 °C,"O=C(O)CCCNc1ccc2c(NC(=O)CC3CCCCC3)c(Cl)ccc2n1 [Example 7, 4-[[6-Chlor-5-[(cyclohexylacetyl)amino]-2-quinolinyl]amino]-butanoic Acid]"
3,186 to 190 °C,"O=C(CC1CCC(C(F)(F)F)CC1)Nc1c(Cl)ccc2nc(N3CCNCC3)ccc12 (stereo not drawn) [Example 9, N-[6-Chloro-2-(1-piperazinyl)-5-quinolinyl]-4-(trifluoromethyl)-cyclohexaneacetamide]"
4,186 to 188 °C,"O=C(CC1CCCCC1)Nc1c(Cl)ccc2nc(N3CCCNCC3)ccc12 [Example 10, N-[6-Chlor-2-(hexahydro-1H-1,4-diazepin-1-yl)-5-quinolinyl]-cyclohexaneacetamide]"
5,250 to 252 °C,C[C@@H]1CN(c2ccc3c(NC(=O)CC4CCCCC4)c(Cl)ccc3n2)C[C@H](C)N1 [Example 11]
6,183 to 184 °C,"O=C(CC1CCCCC1)Nc1cccc2ncccc12 [Example 18, N-5-Quinolinyl-cyclohexaneacetamide]"
7,133 to 135 °C,"CC1(CC(=O)Nc2cccc3ncccc23)CCCCC1 [Example 19, 1-Methyl-N-5-quinolinyl-cyclohexaneacetamide]"
8,135 to 138 °C,"O=C(CCC1CCCC1)Nc1cccc2ncccc12 [Example 21, N-5-Quinolinyl-cyclopentanepropanamide]"
9,159 to 163 °C,"O=C(CC1CCCCC1)Nc1c(Cl)ccc2nc(CCCNCCCO)ccc12 [Example 22, N-[6-Chloro-2-[3-[(3-hydroxypropyl)amino]propyl]-5-quinolinyl]-cyclohexaneacetamide]"
10,121 to 130 °C,"NCCCc1ccc2c(NC(=O)CC3CCCCC3)c(Cl)ccc2n1 [Example 23, N-[2-(3-Aminopropyl)-6-chloro-5-quinolinyl]-cyclohexaneacetamide]"
11,219 °C,"O=C(Nc1c(Cl)ccc2nc(N3CCNCC3)ccc12)C1(C2CCCCC2)CC1 [Example 27, N-[6-Chloro-2-(1-piperazinyl)-5-quinolinyl]-1-cyclohexyl-cyclopropanecarboxamide]"
12,219 to 221 °C,"O=C(CC1CCCCC1)Nc1c(Cl)ccc2nc(N3CC[C@H](O)C3)ccc12 [Example 29, N-[6-Chloro-2-[(3S)-3-hydroxy-1-pyrrolidinyl]-5-quinolinyl]-cyclohexaneacetamide]"
13,201 to 206 °C,"N[C@@H]1CCN(c2ccc3c(NC(=O)CC4CCCCC4)c(Cl)ccc3n2)C1 [Example 30, N-[2-[(3R)-3-Amino-1-pyrrolidinyl]-6-chloro-5-quinolinyl]-cyclohexaneacetamide]"
14,219 to 226 °C,"N[C@H]1CCN(c2ccc3c(NC(=O)CC4CCCCC4)c(Cl)ccc3n2)C1 [Example 31, N-[2-[(3S)-3-Amino-1-pyrrolidinyl]-6-chloro-5-quinolinyl]-cyclohexaneacetamide]"
15,333 to 334 °C,"NC1CCN(c2ccc3c(NC(=O)CC4CCCCC4)c(Cl)ccc3n2)CC1 [Example 32, N-[2-(4-Amino-1-piperidinyl)-6-chloro-5-quinolinyl]-cyclohexaneacetamide]"
16,197 to 199 °C,"O=C(CC1CCCCC1)Nc1c(Cl)ccc2nc(N3CC[C@@H](NCCO)C3)ccc12 [Example 34, N-[6-Chloro-2-[(3R)-3-[(2-hydroxyethyl)amino]-1-pyrrolidinyl]-5-quinolinyl]-cyclohexaneacetamide]"
17,164 to 165 °C,"CN[C@H]1CCN(c2ccc3c(NC(=O)CC4CCCCC4)c(Cl)ccc3n2)C1 [Example 35, N-[6-Chloro-2-[(3S)-3-(methylamino)-1-pyrrolidinyl]-5-quinolinyl]-cyclohexaneacetamide]"
18,194 to 196 °C,"O=C(CC1CCCCC1)Nc1c(Cl)ccc2nc(N3CC[C@H](NCCO)C3)ccc12 [Example 36, N-[6-Chloro-2-[(3S)-3-[(2-hydroxyethyl)amino]-1-pyrrolidinyl]-5-quinolinyl]-cyclohexaneacetamide]"
19,223 to 224 °C,"Cc1ccc2nc(N3CC[C@H](N)C3)ccc2c1NC(=O)CC1CCCCC1 [Example 38, N-[2-[(3S)-3-Amino-1-pyrrolidinyl]-6-methyl-5-quinolinyl]-cyclohexaneacetamide]"
20,222 to 225 °C (dec.),"O=C(O)CNc1ccc2c(NC(=O)CC3CCCCC3)c(Cl)ccc2n1 [Example 40, N-[6-Chloro-5-[(cyclohexylacetyl)amino]-2-quinolinyl]-glycine]"
21,222 to 224 °C (dec.),"O=C(O)CCNc1ccc2c(NC(=O)CC3CCCCC3)c(Cl)ccc2n1 [Example 41, N-[6-Chloro-5-[(cyclohexylacetyl)amino]-2-quinolinyl]-β-alanine]"
22,206 to 208 °C,"O=C(NCC1CCCCC1)c1c(Cl)ccc2nc(N3CC(O)C3)ccc12 [Example 53, 6-Chloro-N-(cyclohexylmethyl)-2-(3-hydroxy-1-azetidinyl)-5-quinolinecarboxamide]"
